Several values for one entry are separate records, joined by “and”; a condition that tells them apart may be missing. Equal values may be shown once. Read-outs that look alike come from different tables or passages of the source.
Columns and labels:
[1] = target: α4β2 nAChR; conditions: cited from earlier work
[2] = target: T1, α7 nAChR (Macaca mulatta, UniProt Q866A2); assay: Comparative PET study in a rhesus monkey; type: in vivo, rhesus monkey (Macaca mulatta)
T1 construct: from tissue; host or cells: brain of a living rhesus monkey
Experimental: One male rhesus monkey (Macaca mulatta, 6 years old, body weight = 10 kg) underwent two PET imaging sessions with [^18F]10a and [^18F]10b, respectively. The scans were conducted 19 days apart. The monkey was initially sedated by intramuscular ketamine at 10 mg∙kg^−1 at ~2 h before the PET scan and anesthetized by 1.5%–3% isoflurane throughout the imaging session. PET scan was performed using a FOCUS-220 PET scanner (Siemens Preclinical Solutions, Knoxville, TN, USA). After a transmission scan, 167 MBq of [^18F]10a (specific activity of 362 GBq∙μmol^−1) or 185 MBq of [^18F]10b (specific activity of 159 GBq·μmol^−1) were administered intravenously. Emission data were acquired in list mode for 240 min. Raw list-mode PET data was histogrammed (frames of 6 × 30 s; 3 × 1 min; 2 × 2 min; 46 × 5 min to scan termination) and reconstructed with 2D filtered back projection, using a 0.15 cm^−1 Shepp filter and including corrections for scanner normalization, detector dead time, randoms, and radiation scatter and attenuation. The PET images were then registered to MR images, acquired with a Siemens 3 T Trio scanner, with a 6-parameter rigid body registration. The MR native space was then normalized using nonlinear affine registration to a high-resolution rhesus monkey atlas using BioImage Suite 3.01 (http://www.bioimagesuite.org/index.html). Time-activity curves were extracted by mapping atlas-defined regions to PET native space using the optimal transformation matrices calculated in the registration and normalization steps. Regions extracted included amygdala, caudate, cerebellum, cingulate, cortical regions (frontal, occipital, and temporal cortex), hippocampus, putamen, thalamus, and pons.

[3] = target: T2, human α7 nAChR (Homo sapiens, UniProt P36544); assay: Radioligand displacement at human α7 nAChR, [3H]methyllycaconitine, SH-SY5Y cells; type: binding; conditions: for Selectivity (Ki ratio) α7/α3β4: Ki hα3β4 divided by Ki hα7; for Selectivity (Ki ratio) α7/α4β2: Ki hα4β2 divided by Ki hα7
T2 construct: expressed in transfected cells; host or cells: SH-SY5Y

[4] = target: T3, human α4β2 nAChR (Homo sapiens, UniProt P17787+P43681); assay: Radioligand displacement at human α4β2 nAChR, [3H]epibatidine, HEK293 cells; type: binding
T3 construct: expressed in transfected cells; host or cells: HEK293
Experimental: (§1) The affinity of the test compounds for human α4β2 and α3β4 nAChR was determined as described above. In brief, HEK293 cells stably expressing human α4β2 or α3β4 nAChR [66] were cultured. […] Nonspecific binding was determined in the presence of 300 μM (−)-nicotine tartrate. Incubation of the samples, separation of free from receptor-bound radioligand, and data evaluation were performed as described above.

[5] = target: T4, human α3β4 nAChR (Homo sapiens, UniProt P30926+P32297); assay: Radioligand displacement at human α3β4 nAChR, [3H]epibatidine, HEK293 cells; type: binding
T4 construct: expressed in transfected cells; host or cells: HEK293
Experimental: as §1

[6] = target: rat α6β2* nAChR (Rattus norvegicus, UniProt P12390+P43143); assay: [3H]epibatidine binding to antibody-immobilized native rat α6β2* nAChR from striatum; conditions: read-out: Affinity (Ki in nM) rα6β2*, immunoimmobilization with anti-rα6 antibody, [3H]epibatidine 0.1 nM
Experimental: The specificity of the anti-α6 antibody was tested as described. The receptors were prepared and immobilized as previously described by the subunit-specific antibody. […] Incubations were performed in a buffer containing 50 mM Tris-HCl, pH 7, 150 mM NaCl, 5 mM KCl, 1 mM MgCl2, 2.5 mM CaCl2, 2 mg∙mL^−1 BSA, and 0.05% Tween 20. Specific ligand binding was defined as total binding minus the binding in the presence of 100 nM (±)-epibatidine dihydrochloride hydrate.
The experimental data obtained from the binding experiments were analyzed by means of a non-linear least square procedure using the LIGAND program. The Ki values of the test compounds were also determined by means of the LIGAND program by simultaneously fitting the data obtained from three to five independent saturation and competition binding experiments.

[7] = target: T5, human 5-HT3 receptor (Homo sapiens, UniProt P46098); assay: Radioligand binding at human 5-HT3 receptor, [3H]GR65630 (Eurofins Panlabs); conditions: read-out: 5-HT3 percentage of inhibition
T5 construct: host or cells: HEK-293
T5 sequence (P46098 24-478): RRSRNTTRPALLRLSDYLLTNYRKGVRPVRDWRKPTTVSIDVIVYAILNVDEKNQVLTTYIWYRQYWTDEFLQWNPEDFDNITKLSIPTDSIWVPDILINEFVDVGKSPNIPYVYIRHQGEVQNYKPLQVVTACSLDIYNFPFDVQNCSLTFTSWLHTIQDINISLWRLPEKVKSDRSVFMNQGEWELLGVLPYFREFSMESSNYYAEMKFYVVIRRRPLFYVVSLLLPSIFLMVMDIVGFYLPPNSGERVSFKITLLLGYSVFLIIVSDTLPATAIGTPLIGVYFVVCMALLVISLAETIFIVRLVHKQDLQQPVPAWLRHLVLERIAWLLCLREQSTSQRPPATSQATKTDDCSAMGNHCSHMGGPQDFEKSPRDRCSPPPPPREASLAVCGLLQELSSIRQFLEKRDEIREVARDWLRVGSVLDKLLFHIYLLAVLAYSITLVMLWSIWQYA

[8] = target: α7 nAChR; conditions: [125I]α-bungarotoxin labelled rat cortical membranes; cited from earlier work
[9] = target: α3β4 nAChR; parameters: method as in PMID 24050653; conditions: rat receptor subtype; cited from earlier work
[10] = Affinity (Ki in nM) hα3β4, stably transfected HEK-293 cells, [3H]epibatidine
[11] = stably transfected SH-SY5Y cells, [3H]methyllycaconitine, read-out: Affinity (Ki in nM) hα7
[12] = stably transfected HEK-293 cells, [3H]epibatidine, read-out: Affinity (Ki in nM) hα4β2
[13] = 0.1 μM concentration of test compound, [3H]GR65630 binding
[14] = stably transfected HEK-293 cells, [3H]epibatidine, read-out: Affinity (Ki in nM) hα3β4

T2 sequence (P36544 23-502): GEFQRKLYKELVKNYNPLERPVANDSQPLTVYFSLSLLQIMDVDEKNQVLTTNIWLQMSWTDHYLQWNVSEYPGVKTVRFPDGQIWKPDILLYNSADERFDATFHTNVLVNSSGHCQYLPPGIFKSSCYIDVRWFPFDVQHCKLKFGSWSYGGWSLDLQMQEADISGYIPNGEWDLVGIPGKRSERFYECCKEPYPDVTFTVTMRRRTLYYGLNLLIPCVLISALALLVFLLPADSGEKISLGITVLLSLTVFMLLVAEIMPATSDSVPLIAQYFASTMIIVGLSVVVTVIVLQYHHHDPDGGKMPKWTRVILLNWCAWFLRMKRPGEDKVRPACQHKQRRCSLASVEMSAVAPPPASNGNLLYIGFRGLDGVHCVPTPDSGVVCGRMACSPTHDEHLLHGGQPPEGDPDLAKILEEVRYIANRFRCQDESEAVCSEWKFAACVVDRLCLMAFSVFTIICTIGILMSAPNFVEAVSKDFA
T4 sequence (P32297 32-505): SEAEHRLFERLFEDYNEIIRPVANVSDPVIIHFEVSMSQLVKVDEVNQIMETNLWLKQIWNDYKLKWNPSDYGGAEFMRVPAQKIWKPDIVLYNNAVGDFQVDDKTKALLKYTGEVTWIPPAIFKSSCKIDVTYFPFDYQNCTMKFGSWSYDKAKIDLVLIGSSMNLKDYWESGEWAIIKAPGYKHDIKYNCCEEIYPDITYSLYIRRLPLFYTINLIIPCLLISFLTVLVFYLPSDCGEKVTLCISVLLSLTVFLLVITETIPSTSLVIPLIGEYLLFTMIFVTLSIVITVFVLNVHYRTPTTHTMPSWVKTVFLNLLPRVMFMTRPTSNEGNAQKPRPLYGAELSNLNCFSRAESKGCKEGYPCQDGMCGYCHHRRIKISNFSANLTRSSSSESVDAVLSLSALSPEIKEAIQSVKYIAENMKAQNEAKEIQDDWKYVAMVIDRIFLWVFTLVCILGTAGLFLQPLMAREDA
T4 sequence (P30926 22-498): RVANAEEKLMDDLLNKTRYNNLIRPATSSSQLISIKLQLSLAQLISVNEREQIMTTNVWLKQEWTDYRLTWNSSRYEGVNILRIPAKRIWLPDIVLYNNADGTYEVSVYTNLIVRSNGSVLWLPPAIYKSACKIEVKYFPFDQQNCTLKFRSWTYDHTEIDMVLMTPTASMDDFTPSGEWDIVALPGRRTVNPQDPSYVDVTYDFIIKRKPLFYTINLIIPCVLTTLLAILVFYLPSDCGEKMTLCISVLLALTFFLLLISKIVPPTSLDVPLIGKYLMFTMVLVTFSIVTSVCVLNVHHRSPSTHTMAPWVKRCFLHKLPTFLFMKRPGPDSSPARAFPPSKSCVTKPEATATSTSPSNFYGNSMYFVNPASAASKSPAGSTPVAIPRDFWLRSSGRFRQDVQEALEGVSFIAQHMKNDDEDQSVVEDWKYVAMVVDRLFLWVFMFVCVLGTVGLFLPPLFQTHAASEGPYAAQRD
T3 sequence (P43681 29-627 limits assumed): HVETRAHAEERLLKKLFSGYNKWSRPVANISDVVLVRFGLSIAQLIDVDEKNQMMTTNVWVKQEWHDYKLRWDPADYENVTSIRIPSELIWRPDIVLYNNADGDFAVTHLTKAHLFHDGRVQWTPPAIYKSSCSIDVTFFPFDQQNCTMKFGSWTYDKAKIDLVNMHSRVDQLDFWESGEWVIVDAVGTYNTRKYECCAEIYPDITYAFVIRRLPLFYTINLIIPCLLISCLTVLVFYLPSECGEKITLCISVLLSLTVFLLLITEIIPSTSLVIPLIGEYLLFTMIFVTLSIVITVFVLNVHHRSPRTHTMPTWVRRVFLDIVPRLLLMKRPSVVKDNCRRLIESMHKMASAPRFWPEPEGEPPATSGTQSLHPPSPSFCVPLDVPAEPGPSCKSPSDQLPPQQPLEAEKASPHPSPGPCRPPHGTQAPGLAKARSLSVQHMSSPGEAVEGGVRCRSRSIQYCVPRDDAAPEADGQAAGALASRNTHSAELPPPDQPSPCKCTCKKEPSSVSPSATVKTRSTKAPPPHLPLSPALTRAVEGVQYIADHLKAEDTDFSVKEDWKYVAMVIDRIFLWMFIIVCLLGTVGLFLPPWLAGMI
T3 sequence (P17787 26-502): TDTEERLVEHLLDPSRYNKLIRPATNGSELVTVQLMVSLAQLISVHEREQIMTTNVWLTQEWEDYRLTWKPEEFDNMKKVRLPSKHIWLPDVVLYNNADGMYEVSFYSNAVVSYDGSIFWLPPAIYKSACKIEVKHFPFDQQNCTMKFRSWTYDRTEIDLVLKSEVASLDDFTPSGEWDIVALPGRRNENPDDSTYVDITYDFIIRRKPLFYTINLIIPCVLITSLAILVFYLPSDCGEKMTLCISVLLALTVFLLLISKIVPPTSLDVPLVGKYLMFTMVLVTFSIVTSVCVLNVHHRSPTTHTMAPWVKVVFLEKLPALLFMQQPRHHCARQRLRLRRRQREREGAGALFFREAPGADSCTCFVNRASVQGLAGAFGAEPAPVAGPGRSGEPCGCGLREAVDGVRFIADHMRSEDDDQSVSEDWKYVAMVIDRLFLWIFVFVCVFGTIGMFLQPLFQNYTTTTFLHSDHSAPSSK
Chain of rat α6β2* nAChR (P43143 31-493): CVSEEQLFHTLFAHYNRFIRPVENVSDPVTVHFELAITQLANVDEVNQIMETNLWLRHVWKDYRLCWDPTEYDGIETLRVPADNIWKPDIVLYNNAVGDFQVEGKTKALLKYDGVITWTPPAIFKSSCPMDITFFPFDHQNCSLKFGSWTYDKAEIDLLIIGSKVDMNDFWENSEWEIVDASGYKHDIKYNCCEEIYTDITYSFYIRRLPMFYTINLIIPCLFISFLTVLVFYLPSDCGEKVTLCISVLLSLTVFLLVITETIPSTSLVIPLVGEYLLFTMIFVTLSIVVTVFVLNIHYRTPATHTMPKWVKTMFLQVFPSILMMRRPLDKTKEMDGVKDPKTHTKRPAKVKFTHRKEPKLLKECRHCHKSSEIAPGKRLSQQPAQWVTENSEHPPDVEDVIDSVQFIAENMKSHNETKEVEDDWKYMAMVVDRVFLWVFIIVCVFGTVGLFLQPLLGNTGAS
Chain of rat α6β2* nAChR (P12391 31-464, further chain): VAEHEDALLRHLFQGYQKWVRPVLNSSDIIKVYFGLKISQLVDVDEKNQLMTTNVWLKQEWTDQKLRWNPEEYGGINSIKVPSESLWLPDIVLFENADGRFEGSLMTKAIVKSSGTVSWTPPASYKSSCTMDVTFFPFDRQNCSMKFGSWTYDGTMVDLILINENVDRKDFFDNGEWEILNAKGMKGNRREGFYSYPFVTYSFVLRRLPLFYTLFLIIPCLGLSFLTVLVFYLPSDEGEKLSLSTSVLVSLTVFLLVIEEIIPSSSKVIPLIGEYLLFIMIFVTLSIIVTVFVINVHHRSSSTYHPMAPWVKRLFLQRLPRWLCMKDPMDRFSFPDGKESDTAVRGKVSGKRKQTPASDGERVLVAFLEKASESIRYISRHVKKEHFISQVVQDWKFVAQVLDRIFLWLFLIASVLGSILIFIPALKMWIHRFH
Chain of rat α6β2* nAChR (P12390 25-500): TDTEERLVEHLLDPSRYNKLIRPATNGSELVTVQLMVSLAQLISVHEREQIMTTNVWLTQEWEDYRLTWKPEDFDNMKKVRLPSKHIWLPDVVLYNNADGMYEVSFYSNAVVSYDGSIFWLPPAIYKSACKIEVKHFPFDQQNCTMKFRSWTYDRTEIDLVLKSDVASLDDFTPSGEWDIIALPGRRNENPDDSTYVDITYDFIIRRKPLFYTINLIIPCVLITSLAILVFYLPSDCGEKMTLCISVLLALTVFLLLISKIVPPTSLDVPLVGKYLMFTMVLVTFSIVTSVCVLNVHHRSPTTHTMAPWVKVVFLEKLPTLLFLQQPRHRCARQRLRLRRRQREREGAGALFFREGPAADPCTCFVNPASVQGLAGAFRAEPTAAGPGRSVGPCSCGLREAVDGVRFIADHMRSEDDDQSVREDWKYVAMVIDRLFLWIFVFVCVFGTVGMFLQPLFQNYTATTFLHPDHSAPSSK
T1 sequence (Q866A2 23-502): as the sequence (P36544 23-502) above, with N171S, R186K, V373M, V376A counted along it

Structure (SMILES): Fc1ccc(-c2nnc(N3CCN4CCC3CC4)o2)cc1 [[^18F]NS10743]
- Ki [1]: > 10000 nM

Structure (SMILES): O=S1(=O)c2cc(N3CCN4CCC3CC4)ccc2-c2cccc([18F])c21 [[^18F]10b, reference compound]
- total volume of distribution VT ([2]; cerebellum): 26.8 mL∙cm^−3
- total volume of distribution VT ([2]; thalamus): 46.7 mL∙cm^−3

Structure (SMILES): O=[N+]([O-])c1ccc2c(c1)-c1ccc(N3CCN4CCC3CC4)cc1S2(=O)=O
- melting point: 291 to 294 °C (dec.)

Structure (SMILES): O=S1(=O)c2ccccc2-c2ccc(N3CCN4CCC3CC4)cc21 [Compound 10]
- Ki [3]: 0.51 ± 0.32 nM
- Selectivity (Ki ratio) α7/α3β4 [3]: 97
- Selectivity (Ki ratio) α7/α4β2 [3]: 623
- Ki [4]: 318 ± 43.3 nM
- Ki [5, 10]: 49.6 ± 14.7 nM
- Ki [6]: 517 ± 186 nM
- inhibition at 0.1 µM [7]: 35%
- melting point: 238.5 to 240 °C (dec.)

Structure (SMILES): O=S1(=O)c2cc(N3CCN4CCC3CC4)ccc2-c2cccc(F)c21 [[^18F]10b, reference compound]
- Ki [1]: 562 nM

Structure (SMILES): CN1C2CCCC1CN(c1ccc3c(c1)S(=O)(=O)c1ccc(F)cc1-3)C2 [Compound 12a]
- Selectivity (Ki ratio) α7/α3β4 [3]: 3
- Selectivity (Ki ratio) α7/α4β2 [3]: 5
- Ki [3, 11]: 30.9 ± 8.72 nM
- Ki [4, 12]: 141 ± 11.7 nM
- Ki [5, 10]: 96 ± 1.48 nM
- Ki [6]: 1180 ± 360 nM
- inhibition at 0.1 µM [7, 13]: 10%
- melting point: 214 to 217 °C (dec.)

Structure (SMILES): CN1CC2CCC(C1)N2c1ccc2c(c1)S(=O)(=O)c1c(F)cccc1-2 [Compound 14b]
- Selectivity (Ki ratio) α7/α3β4 [3]: >500
- Selectivity (Ki ratio) α7/α4β2 [3]: >400
- Ki [3, 11]: 9.26 ± 2.23 nM
- Ki [4, 12]: > 4000 nM
- Ki [5, 14]: > 5000 nM
- Ki [6]: 1450 ± 370 nM
- inhibition at 0.1 µM [7, 13]: 4%
- melting point: 254.5 to 256 °C (dec.)

Structure (SMILES): CN1C2CCCC1CN(c1ccc3c(c1)S(=O)(=O)c1c(F)cccc1-3)C2 [Compound 12b, 6-Fluoro-3-(9-methyl-3,9-diazabicyclo[3.3.1]nonan-3-yl)dibenzo[b,d]thiophene 5,5-dioxide]
- Selectivity (Ki ratio) α7/α3β4 [3]: 1
- Selectivity (Ki ratio) α7/α4β2 [3]: 3
- Ki [3, 11]: 105 ± 23.9 nM
- Ki [4, 12]: 301 ± 148 nM
- Ki [5, 10]: 94.8 ± 6.48 nM
- Ki [6]: 1190 ± 230 nM
- inhibition at 0.1 µM [7, 13]: 11%
- melting point: 264 to 272 °C (dec.)

Structure (SMILES): O=S1(=O)c2ccccc2-c2cc(F)c(N3CCN4CCC3CC4)cc21 [Compound 10c, 3-(1,4-Diazabicyclo[3.2.2]nonan-4-yl)-2-fluorodibenzo[b,d]thiophene 5,5-dioxide]
- Selectivity (Ki ratio) α7/α3β4 [3]: 33
- Selectivity (Ki ratio) α7/α4β2 [3]: 59
- fold lower affinity at the α7 subtype ([3]; relative to 10a and 10b): about 10 fold
- Ki [3, 11]: 8.53 ± 1.74 nM
- Ki [4]: 507 ± 212 nM
- Ki [5]: 279 ± 24.4 nM
- Ki [6]: 1390 ± 340 nM
- inhibition at 0.1 µM [7, 13]: 26%
- melting point: 305 to 309 °C (dec.)

Structure (SMILES): CN1C2CCC1CN(c1ccc3c(c1)S(=O)(=O)c1c(F)cccc1-3)C2 [Compound 13b]
- Selectivity (Ki ratio) α7/α3β4 [3]: 5
- Selectivity (Ki ratio) α7/α4β2 [3]: 10
- Ki [3, 11]: 40.9 ± 7.77 nM
- Ki [4, 12]: 426 ± 197 nM
- Ki [5, 14]: 224 ± 51.7 nM
- Ki [6]: 2260 ± 540 nM
- inhibition at 0.1 µM [7, 13]: 10%
- melting point: 260.5 to 262.5 °C (dec.)

Structure (SMILES): O=S1(=O)c2cc(N3CCN4CCC3CC4)ccc2-c2cccc(F)c21 [Compound 10b, 3-(1,4-Diazabicyclo[3.2.2]nonan-4-yl)-6-fluorodibenzo[b,d]thiophene 5,5-dioxide]
- Ki [4, 12]: 211 ± 108 nM
- Ki [5, 10]: 43 nM and 42.3 nM
- Ki [6]: 435 ± 152 nM
- inhibition at 0.1 µM [7, 13]: 42%
- Ki [8]: 0.4 nM
- Ki [9]: 709 nM

— PMC6332508, “A Promising PET Tracer for Imaging of α7 Nicotinic Acetylcholine Receptors in the Brain: Design, Synthesis, and in Vivo Evaluation of a Dibenzothiophene-Based Radioligand” (Molecules, 2015)
